As a reminder, the IC50 is the point on the concentration scale where inhibition reaches its midpoint.

The nature of this assay: Inhibition of CRM1 in human HCT-15 cells assessed as reduction in cell viability incubated for 24 hrs.

As for `[O-][S@@+](/C=C/CCN=C=S)c1cc(C(F)(F)F)cc(C(F)(F)F)c1`, the IC50 worked out at 151 nM.

The values above are taken from BindingDB's records for doi:10.1021/acs.jmedchem.9b01663 (Dalian University of Technology, 2020).
